{"source": "patent US8703713B2", "about": "“Combination therapy for pancreatic cancer using an antigenic peptide and chemotherapeutic agent” (Onco Therapy Science, Inc., priority 2007, dated 2014)", "key": {"[1]": {"test_system": "unresectable pancreatic cancer", "conditions": "cited from earlier work"}, "[2]": {"assay": "Preliminary test administration of the peptide", "assay_type": "in vivo, human", "conditions": "10 mg of the peptide subcutaneously before first vaccine administration, monitoring 30 minutes, all cases", "method": "For the purpose of avoiding unanticipated adverse events, such as anaphylactic shock, 10 mg of the peptide is subcutaneously administered as a preliminary test administration before the first vaccine administration to a site other than the site of the actual administration, and monitoring is carried out for 30 minutes. If a Grade 3 or higher local reaction or systemic adverse event could not be observed, the actual administration was carried out."}, "[3]": {"conditions": "standard therapy against unresectable pancreatic cancer"}}, "note": "Counter-ions that a name gives are not always drawn. Peptide text beside a SMILES is read from it."}
{"smiles": "Nc1ccn([C@@H]2O[C@H](CO)[C@@H](O)C2(F)F)c(=O)n1", "note": "[gemcitabine, 2′-deoxy-2′,2′-difluorocytidine monohydrochloride (b-isomer)]", "values": [{"measurement": "Evident tumor reducing effect (Objective Response)", "setting": "[1]; gemcitabine alone, data obtained so far", "result": 10, "unit": "%"}, {"measurement": "Disease control rate (SD or higher)", "setting": "[1]; gemcitabine alone, data obtained so far, listed as GEM alone", "result": "45-48%"}, {"measurement": "median survival period", "setting": "[1]; [3]", "result": 5.7, "unit": "months"}, {"measurement": "one-year survival rate", "setting": "[1]; [3]", "result": 18, "unit": "%"}]}
{"smiles": "CC[C@H](C)[C@H](NC(=O)[C@H](CCCNC(=N)N)NC(=O)[C@H](CC(N)=O)NC(=O)CNC(=O)[C@H](CC(=O)O)NC(=O)[C@@H]1CCCN1C(=O)[C@@H](NC(=O)[C@H](Cc1ccccc1)NC(=O)[C@@H](N)CCCNC(=N)N)C(C)C)C(=O)O", "note": "[VEGFR2-169, RFVPDGNRI] (H-RFVPDGNRI-OH)", "values": [{"measurement": "local adverse event and systemic adverse event", "setting": "[2]", "result": "not observed in any of the cases"}]}
